Where two headings read alike, the source gives them in different places.
Columns and labels:
NL-hA2BAR = target: T1, NL-hA2BAR (Homo sapiens, UniProt P29275); test: NanoBRET saturation ligand-binding assay, NL-hA2BAR
T1 construct: expressed in transfected cells
T1 sequence (P29275 1-332): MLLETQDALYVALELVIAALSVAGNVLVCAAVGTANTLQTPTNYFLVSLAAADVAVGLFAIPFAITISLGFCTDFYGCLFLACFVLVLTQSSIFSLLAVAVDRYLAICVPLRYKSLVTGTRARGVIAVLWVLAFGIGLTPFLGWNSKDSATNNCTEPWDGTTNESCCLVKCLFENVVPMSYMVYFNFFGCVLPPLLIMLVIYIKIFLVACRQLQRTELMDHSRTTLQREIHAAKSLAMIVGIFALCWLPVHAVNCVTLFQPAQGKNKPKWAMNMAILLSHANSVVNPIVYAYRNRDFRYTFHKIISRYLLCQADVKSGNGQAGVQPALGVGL
Protocol: Probes 11 and 12 were further evaluated for their ability to bind the other three adenosine receptor subtypes (NL-A2AAR, NL-A2BAR, and NL-A3AR), and their ligand-binding properties were quantified in the NanoBRET saturation and inhibition binding assays, respectively (Table 1 and Figure 4).
NanoBRET binding assay. All NanoBRET experiments were performed in white flat […]
(§1) 37 °C for kinetic binding experiments. Emissions were read at 420 nm (80 nm bandpass; […]
the SulfoCy5-labelled probe. […]
nm emission by the 420 nm emission. The term “raw BRET ratio” refers to the unprocessed data as no background ratio has been subtracted. In all NanoBRET binding […]
competitive antagonist selective for the adenosine receptor under investigation […]
MRS1220 for the A3AR). HEK293T cells stably/transiently expressing Nluc-AR were […]
were incubated for 1 h at 37 °C. […]
NanoBRET saturation binding assay. Total and nonspecific saturation binding curves were fit simultaneously using the following equation:
BRET ratio = Bmax[B] + M(B) + C […]
Uninhibited specific binding = 100 ― 100 x [A]

NL-hA2AAR = target: T2, NL-hA2AAR (Homo sapiens, UniProt P29274); test: NanoBRET saturation ligand-binding assay, NL-hA2AAR; conditions: HEK293T cells transiently expressing NL-hA2AAR, mean ± SEM; read-out: affinity values pKD, NL-hA2AAR (converted)
T2 construct: expressed in transfected cells; host or cells: HEK293T, transient transfection (FuGENE)
T2 sequence (P29274 whole entry): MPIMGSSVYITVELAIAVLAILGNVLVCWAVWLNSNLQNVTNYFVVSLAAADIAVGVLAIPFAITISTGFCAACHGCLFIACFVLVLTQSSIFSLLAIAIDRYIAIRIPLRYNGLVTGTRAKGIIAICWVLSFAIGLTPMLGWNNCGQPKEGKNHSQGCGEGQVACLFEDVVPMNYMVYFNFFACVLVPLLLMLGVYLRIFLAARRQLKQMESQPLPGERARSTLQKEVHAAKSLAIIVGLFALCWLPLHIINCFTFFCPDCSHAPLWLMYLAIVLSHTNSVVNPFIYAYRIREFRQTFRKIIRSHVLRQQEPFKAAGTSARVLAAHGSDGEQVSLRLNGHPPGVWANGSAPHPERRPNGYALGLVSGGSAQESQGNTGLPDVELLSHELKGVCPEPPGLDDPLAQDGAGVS
Protocol: Probes 11 and 12 were further evaluated for their ability to bind the other three adenosine receptor subtypes (NL-A2AAR, NL-A2BAR, and NL-A3AR), and their ligand-binding properties were quantified in the NanoBRET saturation and inhibition binding assays, respectively (Table 1 and Figure 4). […]
plates (Nunc Lab-Tek, Thermo Fischer Scientific), pre-coated with Poly-D-Lysine, at 20,000 cells per well in DMEM/10% FCS. 24 h post seeding, cells were transiently transfected with human SNAP-A1. Transient transfections were carried out following manufacturer’s protocol: used FuGENE (Promega) HD at 3:1 ratio of reagent to cDNA with a total of 300 ng cDNA per well. Transfection solutions were made up in Gibco Opti-MEM (Thermo Fischer Scientific), incubated at RT for 5 min and added as 11 µL per well. Cells were incubated for additional 24 h at 37 OC, 5% CO2. Transient Transfection of NanoLuc-tagged human A 2AAR in HEK293T cell line was carried out as follows: 72 h prior to the experiment cells were removed from a confluent T75 flask and centrifuged. The pellet of cells was resuspended in 10 mL of fresh complete DMEM. […]
as §1

NL-rA1AR = target: T3, NL-rA1AR (Rattus norvegicus, UniProt P25099); test: NanoBRET competition ligand-binding assay (CA200645 tracer), NL-rA1AR
T3 construct: expressed in transfected cells
T3 sequence (P25099 1-326): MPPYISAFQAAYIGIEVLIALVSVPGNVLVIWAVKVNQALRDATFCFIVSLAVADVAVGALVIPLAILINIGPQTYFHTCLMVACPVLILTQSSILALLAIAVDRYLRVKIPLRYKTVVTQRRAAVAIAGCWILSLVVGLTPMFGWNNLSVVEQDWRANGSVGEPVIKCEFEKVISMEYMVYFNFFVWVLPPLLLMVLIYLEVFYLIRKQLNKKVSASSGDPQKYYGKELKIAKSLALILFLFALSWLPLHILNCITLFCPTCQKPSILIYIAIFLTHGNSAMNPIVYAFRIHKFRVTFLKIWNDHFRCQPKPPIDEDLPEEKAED

| Compound | Kd (NL-hA2BAR; HEK293T cells stably expressing NL-hA2BAR, read-out: affinity values pKD, NL-hA2BAR (converted)) [µM] | BRET signal detected at NL-A2BAR (NL-hA2BAR; concentrations tested 0–500 nM) | Kd (NL-hA2AAR) [µM] | Ki (NL-rA1AR; CA200645 (25 nM) tracer, HEK293T cells, mean ± SEM, read-out: affinity values pKi, NL-rA1AR (converted)) [µM] | Ki (NL-rA1AR; supplementary CSV, read-out: AFFINITY (A1AR_rat) pKi (converted)) [µM] |
| --- | --- | --- | --- | --- | --- |
| CCCCn1c(=O)c2[nH]c(C34CCC(C(=O)NCCNC(=O)CCNC(=O)c5ccc(OC(=O)CCCCC[N+]6=C(/C=C/C=C/C=C7/N(C)c8ccc(S(=O)(=O)O)cc8C7(C)C)C(C)(C)c7cc(S(=O)(=O)[O-])ccc76)c(F)c5)(CC3)CC4)nc2n(CCCC)c1=O [Compound 11, 1-(6-(4-((3-((2-(4-(1,3-Dibutyl-2,6-dioxo-2,3,6,7-tetrahydro-1H-purin-8-yl)bicyclo[2.2.2]octane-1-carboxamido)ethyl)amino)-3-oxopropyl)carbamoyl)-2-fluorophenoxy)-6-oxohexyl)-3,3-dimethyl-2-((1E,3E)-5-((E)-1,3,3-trimethyl-5-sulfoindolin-2-ylidene)penta-1,3-dien-1-yl)-3H-indol-1-ium-5-sulfonate] | > 1 | minimal BRET signal | 0.245 | – | – |
| CCCCn1c(=O)c2[nH]c(C34CCC(C(=O)NCCNC(=O)CCNC(=O)c5ccc(OC(=O)CCC(=O)NCCOCCOCCNC(=O)O[C@H]6CC/C=C/CCC6)c(F)c5)(CC3)CC4)nc2n(CCCC)c1=O [Compound 12, 4-((3-((2-(4-(1,3-Dibutyl-2,6-dioxo-2,3,6,7-tetrahydro-1H-purin-8-yl)bicyclo[2.2.2]octane-1-carboxamido)ethyl)amino)-3-oxopropyl)carbamoyl)-2-fluorophenyl (R,E)-1-(Cyclooct-4-en-1-yloxy)-1,12-dioxo-5,8-dioxa-2,11-diazapentadecan-15-oate] | – | – | – | 0.0102 | 0.00832 |
